From PMC6063907, “Metal-cation regulation of enzyme dynamics is a key factor influencing the activity of S-adenosyl-L-homocysteine hydrolase from Pseudomonas aeruginosa” (Scientific Reports, 2018)
Where two headings read alike, the source gives them in different places.

How the values were obtained:
wild type (WT) PaSAHase [1] = biological target: T1, wild type (WT) PaSAHase (Pseudomonas aeruginosa, UniProt Q9I685); type: biochemical; settings: WT enzyme; for kcat/KM: 100 mM MeCl, 25 mM HEPES·MeOH pH 7.5, substrate SAH, 293 K, ± SEM
T1 construct: His-tag with TEV site (from vector pMCSG57) (N, cleaved yes); made in house; host or cells: E. coli BL21-CodonPlus(DE3)-RIPL
Method: (§1) Assays for PaSAHase activity in the hydrolytic direction were carried out spectrophotometrically and the rate of L-homocysteine (Hcy) formation was measured by monitoring its reaction with 5,5′-dithiobis(2-nitrobenzoic acid) (DTNB)[21]. Assays were performed in 3 mL volume in a buffer containing 100 mM MeCl (where Me^+ corresponds to Li^+, Na^+, K^+, Rb^+, or Cs^+ ion) and 25 mM HEPES·MeOH pH 7.5, or a buffer containing 100 mM Tris·HCl pH 7.5. For the Q65A mutein, the experiments were conducted in a buffer containing 100 mM KCl and 25 mM HEPES·KOH pH 7.5. The buffers were supplemented with six units of adenosine deaminase, 100 μM DTNB, and 0.32 μM of PaSAHase or its mutein. The reaction was initiated by the addition of S-adenosyl-L-homocysteine (SAH) at a final concentration from 2.5 to 200 μM. The conversion of Hcy to Hcy-TNB was carried out at 293 K. The reaction progress was measured for one minute and monitored at 412 nm using a U-3900H spectrophotometer (Hitachi). Initial velocity parameters were estimated from the linear region of the recorded curve.
(§2) For the inhibition study, PaSAHase (0.35 μM) in a buffer containing 100 mM KCl and 25 mM Tris·HCl pH 7.5 was incubated with Zn^2+ at different concentrations, ranging from 0.165 to 20 μM. The reaction was initiated by the addition of SAH at a final concentration of 85 μM. The enzymatic activity was followed in the hydrolytic direction by monitoring homocysteine formation via its reaction with DNTB to determine the IC50 constant. For the sample without the addition of Zn^2+ ions, 100% activity was assigned. All measurements were performed in duplicates. The experimental data were analyzed with the GraFit 7.0 software (Erithacus) to obtain the kinetic parameters of the enzymatic reactions: substrate affinity (KM), activity (Vmax), as well as catalytic rate (kcat) or IC50 value for inhibition. The IC50-to-Ki converter[61] was applied to calculate the inhibition constant (Ki) for Zn^2+ ions using the noncompetitive model of inhibition.

Q65A PaSAHase [2] = biological target: T2, Q65A PaSAHase (Pseudomonas aeruginosa, UniProt Q9I685, Q65A); type: biochemical; settings: Q65A mutein, 100 mM KCl, 25 mM HEPES·KOH pH 7.5, substrate SAH, 293 K; ± SEM
T2 construct: His-tag with TEV site (from vector pMCSG57) (N, cleaved yes); made in house; host or cells: E. coli BL21-CodonPlus(DE3)-RIPL
Method: as §1, §2

PaSAHase [3] = biological target: T3, PaSAHase (Pseudomonas aeruginosa, UniProt Q9I685); assay: ITC titration of PaSAHase with metal ions (Zn^2+, K^+); type: binding
T3 construct: His-tag with TEV site (from vector pMCSG57) (N, cleaved yes); made in house; host or cells: E. coli BL21-CodonPlus(DE3)-RIPL
T3 sequence (Q9I685 1-469): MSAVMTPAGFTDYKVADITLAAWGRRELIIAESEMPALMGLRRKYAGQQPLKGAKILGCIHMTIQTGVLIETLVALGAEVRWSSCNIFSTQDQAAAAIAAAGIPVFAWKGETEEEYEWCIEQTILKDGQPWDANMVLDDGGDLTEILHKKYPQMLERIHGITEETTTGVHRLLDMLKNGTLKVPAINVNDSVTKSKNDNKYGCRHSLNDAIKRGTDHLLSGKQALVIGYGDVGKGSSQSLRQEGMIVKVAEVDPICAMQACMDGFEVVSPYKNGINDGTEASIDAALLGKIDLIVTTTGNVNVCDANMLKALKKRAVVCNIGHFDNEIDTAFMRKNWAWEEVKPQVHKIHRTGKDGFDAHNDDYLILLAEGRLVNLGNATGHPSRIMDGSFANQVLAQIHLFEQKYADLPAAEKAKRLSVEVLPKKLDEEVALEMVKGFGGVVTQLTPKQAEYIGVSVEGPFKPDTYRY
Method: (§3) ITC measurements were performed at 293 K using a MicroCal iTC200 calorimeter (GE Healthcare). For the adenosine binding studies, the wild type protein was dialyzed against a buffer containing 100 mM MeCl and 25 mM HEPES·MeOH pH 7.5, or an alkali-cation-free buffer containing 100 mM Tris·HCl pH 7.5. The experiment for the Q65A mutein was conducted in a buffer containing 100 mM KCl and 25 mM HEPES·KOH pH 7.5. The final protein concentrations were in the range of 100–120 µM. Adenosine was dissolved in the dialysis buffers to the concentrations of 0.6 to 1.0 mM. The K^+ ion binding study was conducted in 50 mM Tris·HCl pH 7.5 at PaSAHase concentration of 70 μM. The protein was titrated with 1 mM KCl in 50 mM Tris·HCl pH 7.5. The Zn^2+ ion binding study was conducted in a buffer containing 100 mM KCl and 50 mM Tris·HCl pH 7.5 at PaSAHase concentration of 45 μM. The protein was titrated with 2 mM ZnCl2. In all ITC experiments the ligand was injected to the protein solution (300 μL) in 2 µL aliquots until saturation was observed. The protein concentrations were estimated by the Bradford method and are presented for a single PaSAHase subunit. The raw ITC data were analyzed with the ORIGIN 7.0 software (OriginLab) to obtain the thermodynamic parameters of the complexation reactions: stoichiometry (N), dissociation constant (Kd), as well as changes in enthalpy (ΔH) and entropy (ΔS). For sigmoidal titration curves, the one set of sites model was fitted and N was obtained from the experiment. For hyperbolic curves, for which the determination of N is impossible, N was fixed while fitting the same model. All measurements were performed in duplicates.

wild type (WT) PaSAHase [4] = biological target: T1, wild type (WT) PaSAHase; assay: ITC titration of wild type PaSAHase with adenosine; type: binding; settings: for stoichiometry (N) / ΔH / ΔS / Kd: pH 7.5, 293 K; for Kd: dissociation constant Kd
Method: as §3

Q65A PaSAHase [5] = biological target: T2, Q65A PaSAHase; assay: ITC titration of Q65A PaSAHase with adenosine; type: binding
Method: as §3

PaSAHase [6] = biological target: T3, PaSAHase; assay: Inhibition of PaSAHase by Zn^2+ ions (DTNB assay); type: biochemical; settings: 100 mM KCl; for Ki: calculated from IC50 with IC50-to-Ki converter, noncompetitive model, 25 mM Tris·HCl pH 7.5, SAH 85 μM, enzyme 0.35 μM, read-out: inhibitory constant Ki
Method: as §2

PaSAHase [7] = biological target: T3, PaSAHase; assay: Time course of PaSAHase inactivation by 2′-deoxyadenosine (NADH formation, spectrofluorimetric); type: biochemical
Method: The measurements were performed at 293 K using an F-7000 spectrofluorotometer (Hitachi) in the volume of 1 mL. Irreversible formation of the reduced form of the cofactor (NADH) was monitored spectrofluorometrically by excitation at 340 nm and measurement of emission at 460 nm, as described previously. The influence of K^+ and Rb^+ ions on the time-dependent inactivation of the enzyme was carried out for 15 μM PaSAHase in a buffer containing 100 mM KCl or RbCl, 25 mM HEPES·KOH or HEPES·RbOH pH 7.5, and 1 mM TCEP·HCl. In the first experiment, the reaction was initiated by the addition of 2′-deoxyadenosine to the final concentration of 5 mM. In the second experiment, the enzyme was incubated for 2 hours with 100 μM adenosine and subsequently 2′-deoxyadenosine was added at a final concentration of 200 μM. After one minute the reaction was monitored for 4000 seconds (first experiment) or until the intensity of fluorescence emission reached a plateau (second experiment). An analogous experiment was carried out to analyze the influence of Zn^2+ cations on the enzyme. […] The cofactor conversion reaction was initiated by the addition of 2′-deoxyadenosine to the final concentration of 5 mM and after one minute was monitored for 5000 seconds.

human placental SAHase = biological target: human placental SAHase; set-up: method as in PMID 17892301; settings: read-out: inhibition constant; cited from earlier work
[8] = biological target: the molecule itself; assay: SEC; Superdex 200 gel filtration in buffer D (100 mM KCl, 25 mM HEPES-KOH pH 7.5, 1 mM TCEP-HCl), after reconstitution with NAD+
[9] = Q65A, 100 mM K^+, pH 7.5, 293 K

T2 sequence (Q9I685 whole entry Q65A): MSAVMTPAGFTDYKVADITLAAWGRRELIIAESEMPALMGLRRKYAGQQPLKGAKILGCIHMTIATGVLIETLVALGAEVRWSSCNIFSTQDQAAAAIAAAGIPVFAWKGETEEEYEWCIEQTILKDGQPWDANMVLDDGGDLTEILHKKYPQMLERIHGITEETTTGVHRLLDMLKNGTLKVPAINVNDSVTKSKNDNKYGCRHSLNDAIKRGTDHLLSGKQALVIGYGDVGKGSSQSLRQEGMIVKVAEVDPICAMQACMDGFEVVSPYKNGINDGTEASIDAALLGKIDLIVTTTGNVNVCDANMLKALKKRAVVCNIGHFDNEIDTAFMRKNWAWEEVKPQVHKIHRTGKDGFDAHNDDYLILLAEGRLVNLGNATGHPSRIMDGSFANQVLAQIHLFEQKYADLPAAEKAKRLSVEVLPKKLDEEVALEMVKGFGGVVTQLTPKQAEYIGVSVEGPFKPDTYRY

Molecule: [Na+] [Na^+]
- kcat/KM (wild type (WT) PaSAHase [1]): 8467 ± 940 M⁻¹ s⁻¹

Molecule: [K+] [K^+]
- kcat/KM (wild type (WT) PaSAHase [1]): 72502 ± 4858 M⁻¹ s⁻¹
- kcat/KM (Q65A PaSAHase [2]): 5322 ± 358 M⁻¹ s⁻¹
- heat effect of ITC titration of ligand- and alkali-metal-free PaSAHase (PaSAHase [3]; 50 mM Tris·HCl pH 7.5, 70 μM PaSAHase, titrated with 1 mM KCl): No effect other than K^+ dilution heat

Molecule: Nc1ncnc2c1ncn2[C@@H]1O[C@H](CO)[C@@H](O)[C@H]1O [adenosine]
- stoichiometry (N) (wild type (WT) PaSAHase [4]; 100 mM Cs^+): 0.94 ± 0.02
- ΔH (wild type (WT) PaSAHase [4]; 100 mM Cs^+): -4.174 ± 0.115 kcal/mol
- ΔS (wild type (WT) PaSAHase [4]; 100 mM Cs^+): 10.1 cal/mol/°
- stoichiometry (N) (wild type (WT) PaSAHase [4]; 100 mM K^+): 0.80 ± 0.01
- ΔH (wild type (WT) PaSAHase [4]; 100 mM K^+): -9.665 ± 0.237 kcal/mol
- ΔS (wild type (WT) PaSAHase [4]; 100 mM K^+): −5.9 cal/mol/°
- stoichiometry (N) (wild type (WT) PaSAHase [4]; 100 mM Na^+): 0.97 ± 0.02
- ΔH (wild type (WT) PaSAHase [4]; 100 mM Na^+): -3.891 ± 0.114 kcal/mol
- ΔS (wild type (WT) PaSAHase [4]; 100 mM Na^+): 9.8 cal/mol/°
- stoichiometry (N) (wild type (WT) PaSAHase [4]; 100 mM Rb^+): 0.84 ± 0.01
- ΔH (wild type (WT) PaSAHase [4]; 100 mM Rb^+): -8.935 ± 0.137 kcal/mol
- ΔS (wild type (WT) PaSAHase [4]; 100 mM Rb^+): −4.2 cal/mol/°
- Kd (wild type (WT) PaSAHase [4]; 100 mM Cs^+): 4.7 ± 0.6 µM
- Kd (wild type (WT) PaSAHase [4]; 100 mM K^+): 1.2 ± 0.2 µM
- Kd (wild type (WT) PaSAHase [4]; 100 mM Na^+): 8.8 ± 1 µM
- Kd (wild type (WT) PaSAHase [4]; 100 mM Rb^+): 1.8 ± 0.2 µM
- heat effect of ITC titration (wild type (WT) PaSAHase [4]; in the absence of any alkali metals or the presence of Li^+ ions): immeasurably small
- Kd (Q65A PaSAHase [5]): 7.3 ± 0.4 µM
- stoichiometry (N) (Q65A PaSAHase [5]; [9]): 0.236 ± 0.004
- ΔH (Q65A PaSAHase [5]; [9]): -7.447 ± 0.167 kcal/mol

Molecule: [Cs+] [Cs^+]
- kcat/KM (wild type (WT) PaSAHase [1]): 6668 ± 333 M⁻¹ s⁻¹

Molecule: [Zn+2] [Zn^2+]
- mode of inhibition (PaSAHase [6]; 25 mM Tris·HCl pH 7.5): very strong noncompetitive inhibitor
- Ki (PaSAHase [6]; listed as zinc): ~0.015 µM
- Ki (PaSAHase [6]): 0.015 µM
- rate of NADH formation (PaSAHase [7]; 100 mM KCl, enzyme incubated with adenosine (200 μM) and ZnCl2 (1, 5 or 10 μM), then 5 mM 2′-deoxyadenosine): gradually decreased with increasing Zn^2+ concentration
- stoichiometry of protein:Zn^2+ binding, per one subunit (PaSAHase [3]; 100 mM KCl, 50 mM Tris·HCl pH 7.5, 45 μM enzyme, 2 mM ZnCl2, 293 K): 0.90 ± 0.06
- Kd (PaSAHase [3]; 100 mM KCl, 50 mM Tris·HCl pH 7.5, 45 μM enzyme, 2 mM ZnCl2, 293 K, read-out: apparent binding constant Kd): 12.7 ± 2.9 µM

Molecule: [Rb+] [Rb^+]
- rate of NADH formation compared with K^+ (PaSAHase [7]; enzyme first incubated with 100 μM adenosine, then 200 μM 2′-deoxyadenosine added, 100 mM RbCl): significantly lower
- kcat/KM (wild type (WT) PaSAHase [1]): 3568 ± 237 M⁻¹ s⁻¹
- mode of inhibition (wild type (WT) PaSAHase [1]; 100 mM RbCl, kinetics with SAH): noncompetitive inhibitor
- drop of kcat compared with K^+ (wild type (WT) PaSAHase [1]; relative to kcat in the presence of K^+): ~33 fold

Molecule: [Cu+2] [copper]
- Ki (human placental SAHase): ~0.025 µM

Molecule: [Li+] [Li^+]
- kcat/KM (wild type (WT) PaSAHase [1]): 731 ± 143 M⁻¹ s⁻¹

B1: S-adenosyl-L-homocysteine hydrolase from Pseudomonas aeruginosa (enzyme, Pseudomonas aeruginosa PAO1)
chain: SNAMSAVMTPAGFTDYKVADITLAAWGRRELIIAESEMPALMGLRRKYAGQQPLKGAKILGCIHMTIQTGVLIETLVALGAEVRWSSCNIFSTQDQAAAAIAAAGIPVFAWKGETEEEYEWCIEQTILKDGQPWDANMVLDDGGDLTEILHKKYPQMLERIHGITEETTTGVHRLLDMLKNGTLKVPAINVNDSVTKSKNDNKYGCRHSLNDAIKRGTDHLLSGKQALVIGYGDVGKGSSQSLRQEGMIVKVAEVDPICAMQACMDGFEVVSPYKNGINDGTEASIDAALLGKIDLIVTTTGNVNVCDANMLKALKKRAVVCNIGHFDNEIDTAFMRKNWAWEEVKPQVHKIHRTGKDGFDAHNDDYLILLAEGRLVNLGNATGHPSRIMDGSFANQVLAQIHLFEQKYADLPAAEKAKRLSVEVLPKKLDEEVALEMVKGFGGVVTQLTPKQAEYIGVSVEGPFKPDTYRY
notes: short tripeptide (SNA-) cloning artifact that extends the N-terminus of the purified protein; S-adenosyl-L-homocysteine hydrolase, Pseudomonas aeruginosa PAO1; about 53 kDa by SDS-PAGE; Batches were either Zn2+-containing or freed of Zn2+ with TPEN; The vector pMCSG57 is named, the tag itself is not; also called PaSAHase; SAHase
- stoichiometry N [8]: 4
